In patent US7417156B2, “Orally active, antimalarial, anticancer, artemisinin-derived trioxane dimers” (Johns Hopkins University, priority 2002, dated 2008):

Legend:
[1] = tested on: UACC-62; test: NCI 60 cell line panel screen (SRB); format: cell-based, human; conditions: for Log10GI50: Melanoma, UACC-62; for Log10LC50 / Log10TGI50: UACC-62 (Melanoma); for Log10LC50: LC50: PG=−50; for Log10TGI50: TGI: PG=0
[2] = tested on: SN12C; test: NCI 60 cell line panel screen (SRB); format: cell-based, human; conditions: for Log10GI50: Renal Cancer, SN12C; for Log10LC50 / Log10TGI50: SN12C (Renal Cancer); for Log10LC50: LC50: PG=−50; for Log10TGI50: TGI: PG=0
[3] = tested on: OVCAR-8; test: NCI 60 cell line panel screen (SRB); format: cell-based, human; conditions: for Log10LC50 / Log10TGI50: OVCAR-8 (Ovarian Cancer); for Log10LC50: LC50: PG=−50; for Log10TGI50: TGI: PG=0; for Log10GI50: Ovarian Cancer, OVCAR-8
[4] = tested on: T-47D; test: NCI 60 cell line panel screen (SRB); format: cell-based, human; conditions: T-47D (Breast Cancer); for Log10LC50: LC50: PG=−50; for Log10TGI50: TGI: PG=0
[5] = tested on: A498; test: NCI 60 cell line panel screen (SRB); format: cell-based, human; conditions: for Log10LC50 / Log10TGI50: A498 (Renal Cancer); for Log10LC50: LC50: PG=−50; for Log10TGI50: TGI: PG=0; for Log10GI50: Renal Cancer, A498
[6] = tested on: Ehrlich ascites tumor (EAT) cells; conditions: MTT assay; cited from earlier work
[7] = tested on: 60 cell line panel; format: cell-based; conditions: for Log10LC50 Delta / Log10LC50 Range / Log10TGI50 Delta / Log10TGI50 Range: 60 cell line panel
[8] = tested on: SR; test: NCI 60 cell line panel screen (SRB); format: cell-based, human; conditions: for Log10GI50: Leukemia, SR; for Log10LC50 / Log10TGI50: SR (Leukemia); for Log10LC50: LC50: PG=−50; for Log10TGI50: TGI: PG=0
[9] = tested on: HCC-2998; test: NCI 60 cell line panel screen (SRB); format: cell-based, human; conditions: for Log10GI50: Colon Cancer, HCC-2998; for Log10LC50 / Log10TGI50: HCC-2998 (Colon Cancer); for Log10LC50: LC50: PG=−50; for Log10TGI50: TGI: PG=0
[10] = tested on: KM12; test: NCI 60 cell line panel screen (SRB); format: cell-based, human; conditions: for Log10GI50: Colon Cancer, KM12; for Log10LC50 / Log10TGI50: KM12 (Colon Cancer); for Log10LC50: LC50: PG=−50; for Log10TGI50: TGI: PG=0
[11] = tested on: SK-MEL-5; test: NCI 60 cell line panel screen (SRB); format: cell-based, human; conditions: for Log10GI50: Melanoma, SK-MEL-5; for Log10TGI50: TGI: PG=0
[12] = tested on: HS 578T; test: NCI 60 cell line panel screen (SRB); format: cell-based, human; conditions: for Log10GI50: Breast Cancer, HS 578T; for Log10LC50 / Log10TGI50: HS 578T (Breast Cancer); for Log10LC50: LC50: PG=−50; for Log10TGI50: TGI: PG=0
[13] = tested on: MDA-N; test: NCI 60 cell line panel screen (SRB); format: cell-based, human; conditions: for Log10GI50: Breast Cancer, MDA-N; for Log10LC50 / Log10TGI50: MDA-N (Breast Cancer); for Log10LC50: LC50: PG=−50; for Log10TGI50: TGI: PG=0
[14] = tested on: NCI-H226; test: NCI 60 cell line panel screen (SRB); format: cell-based, human; conditions: for Log10LC50 / Log10TGI50: NCI-H226 (Non-Small Cell Lung Cancer); for Log10LC50: LC50: PG=−50; for Log10TGI50: TGI: PG=0; for Log10GI50: Non-Small Cell Lung Cancer, NCI-H226
[15] = tested on: SW-620; test: NCI 60 cell line panel screen (SRB); format: cell-based, human; conditions: for Log10GI50: Colon Cancer, SW-620; for Log10LC50 / Log10TGI50: SW-620 (Colon Cancer); for Log10LC50: LC50: PG=−50; for Log10TGI50: TGI: PG=0
[16] = tested on: DU-145; test: NCI 60 cell line panel screen (SRB); format: cell-based, human
[17] = tested on: SF-295; test: NCI 60 cell line panel screen (SRB); format: cell-based, human
[18] = tested on: OVCAR-4; test: NCI 60 cell line panel screen (SRB); format: cell-based, human
[19] = tested on: LOX IMVI; test: NCI 60 cell line panel screen (SRB); format: cell-based, human
[20] = tested on: OVCAR-3; test: NCI 60 cell line panel screen (SRB); format: cell-based, human
[21] = mean value over the 60 cell line panel

## C[C@@H]1CC[C@H]2[C@@H](C)C(=O)O[C@@H]3O[C@]4(C)CC[C@@H]1[C@]32OO4 [Artemisinin]
[1]
  Log10GI50: >−4.00
  Log10LC50: >−4.00 log10M
  Log10TGI50: >−4.00 log10M
[2]
  Log10GI50: −4.21
  Log10LC50: >−4.00 log10M
  Log10TGI50: >−4.00 log10M
[3]
  Log10LC50: >−4.00 log10M
  Log10TGI50: >−4.00 log10M
  Log10GI50: >−4.00
[4]
  Log10LC50: >−4.00 log10M
  Log10TGI50: >−4.00 log10M
[5]
  Log10LC50: >−4.00 log10M
  Log10TGI50: >−4.00 log10M
  Log10GI50: >−4.00
[6]
  IC50: 29.8 µM
[7]
  Log10GI50 Delta: −4.07
  Log10GI50 Range: 0.73
  Log10LC50 Delta: −4.00
  Log10LC50 Range: 0.00
  Log10TGI50 Delta: −4.00
  Log10TGI50 Range: 0.06
[8]
  Log10GI50: >−4.00
  Log10LC50: >−4.00 log10M
  Log10TGI50: >−4.00 log10M
[9]
  Log10GI50: >−4.00
  Log10LC50: >−4.00 log10M
  Log10TGI50: >−4.00 log10M
[10]
  Log10GI50: >−4.00
  Log10LC50: >−4.00 log10M
  Log10TGI50: >−4.00 log10M
[11]
  Log10GI50: >−4.10
[11]; SK-MEL-5 (Melanoma)
  Log10TGI50: >−4.00 log10M
[12]
  Log10GI50: >−4.00
  Log10LC50: >−4.00 log10M
  Log10TGI50: >−4.00 log10M
[13]
  Log10GI50: >−4.00
  Log10LC50: >−4.00 log10M
  Log10TGI50: >−4.00 log10M
[14]
  Log10LC50: >−4.00 log10M
  Log10TGI50: >−4.00 log10M
  Log10GI50: >−4.00
[15]
  Log10GI50: >−4.00
  Log10LC50: >−4.00 log10M
  Log10TGI50: >−4.00 log10M

## CC1CCC2C(C)C(CC(CO)CC3OC4OC5(C)CCC6C(C)CCC(C3C)C46OO5)OC3OC4(C)CCC1C32OO4 (stereo not drawn) [Compound 4, bis-trioxane primary alcohol]
[1]
  Log10GI50: −6.86
  Log10LC50: −4.29 log10M
  Log10TGI50: −4.74 log10M
[2]
  Log10GI50: −7.46
  Log10LC50: −4.35 log10M
  Log10TGI50: −4.84 log10M
[3]
  Log10LC50: −4.03 log10M
  Log10TGI50: −4.69 log10M
  Log10GI50: −7.33
[4]
  Log10LC50: −4.17 log10M
  Log10TGI50: −4.73 log10M
[5]
  Log10LC50: −4.50 log10M
  Log10TGI50: −5.00 log10M
  Log10GI50: −6.69
[16]; DU-145 (Prostate Cancer), LC50: PG=−50
  Log10LC50: −4.36 log10M
[16]; DU-145 (Prostate Cancer), TGI: PG=0
  Log10TGI50: −4.72 log10M
[16]; Prostate Cancer, DU-145
  Log10GI50: −6.24
[7]
  Log10GI50 Delta: 1.13
  Log10GI50 Range: 3.20
  Log10LC50 Delta: 0.88
  Log10LC50 Range: 1.14
  Log10TGI50 Delta: 2.31
  Log10TGI50 Range: 3.18
[7]; human cancer cell lines in general
  growth inhibition and cytotoxicity in words: strongly inhibitory but not cytotoxic
[7]; leukemia cell line RPM 1-8226, melanoma cell line SK-MEL-5, renal cancer cell line ACHN
  growth inhibition in words: selectively and strongly inhibitory
[7]; mean over panel
  Log10GI50 MG MID: −6.87
[7]; [21]
  Log10LC50 MG MID: −4.26 log10M
  Log10TGI50 MG MID: −4.87 log10M
[8]
  Log10GI50: <−8.00
  Log10LC50: >−4.00 log10M
  Log10TGI50: −4.58 log10M
[9]
  Log10GI50: −7.45
  Log10LC50: −4.59 log10M
  Log10TGI50: −5.39 log10M
[10]
  Log10GI50: <−8.00
  Log10LC50: −4.29 log10M
  Log10TGI50: −4.79 log10M
[11]
  Log10GI50: −7.90
[11]; SK-MEL-5 (Melanoma), LC50: PG=−50
  Log10LC50: −4.53 log10M
[11]; SK-MEL-5 (Melanoma)
  Log10TGI50: −7.18 log10M
[17]; CNS Cancer, SF-295
  Log10GI50: −5.59
[17]; SF-295 (CNS Cancer), LC50: PG=−50
  Log10LC50: −4.39 log10M
[17]; SF-295 (CNS Cancer), TGI: PG=0
  Log10TGI50: −4.80 log10M
[12]
  Log10GI50: −4.82
  Log10LC50: >−4.00 log10M
  Log10TGI50: >−4.00 log10M
[13]
  Log10GI50: −7.54
  Log10LC50: −4.45 log10M
  Log10TGI50: −4.90 log10M
[18]; OVCAR-4 (Ovarian Cancer), LC50: PG=−50
  Log10LC50: −4.16 log10M
[18]; OVCAR-4 (Ovarian Cancer), TGI: PG=0
  Log10TGI50: −4.62 log10M
[18]; Ovarian Cancer, OVCAR-4
  Log10GI50: −5.44
[14]
  Log10LC50: >−4.00 log10M
  Log10TGI50: −4.40 log10M
  Log10GI50: −4.82
[15]
  Log10GI50: <−8.00
  Log10LC50: −4.44 log10M
  Log10TGI50: −4.89 log10M
[19]; LOX IMVI (Melanoma), LC50: PG=−50
  Log10LC50: >−4.00 log10M
[19]; LOX IMVI (Melanoma), TGI: PG=0
  Log10TGI50: −4.45 log10M
[19]; Melanoma, LOX IMVI
  Log10GI50: −7.26
[20]; OVCAR-3 (Ovarian Cancer), LC50: PG=−50
  Log10LC50: −4.42 log10M
[20]; OVCAR-3 (Ovarian Cancer), TGI: PG=0
  Log10TGI50: −4.92 log10M
[20]; Ovarian Cancer, OVCAR-3
  Log10GI50: −7.68
